Test results taken from ChEMBL document CHEMBL4673176, “Virulence attenuating combination therapy: a potential multi-target synergy approach to treat Pseudomonas aeruginosa infections in cystic fibrosis patients” (RSC Med Chem, 2020).

Experiments:
Pseudomonas aeruginosa [1] = assay: Antibacterial activity against Pseudomonas aeruginosa PAO1 infected in C57BL/6J mouse assessed as mouse survival at 100 uM administered intranasally at the time of infection and every 12 hrs and measured over 96 hrs; assay type: functional; conditions: PAO1, inhaled or nasal
[2] = Competitive inhibition of FAM-labelled PscF (69 to 85 residues) binding to Pseudomonas aeruginosa PscE/PscG by fluorescence polarization
Pseudomonas aeruginosa [3] = assay: Inhibition of quorum sensing system in Pseudomonas aeruginosa MCC-2080 assessed as reduction in biofilm formation incubated for 24 hrs by crystal violet staining based UV-Vis spectrophotometric method relative to control
[4] = Inhibition of PqsR/PqsD in Pseudomonas aeruginosa PA14 assessed as reduction in biofilm formation by crystal violet assay
[5] = target: T1, Transcriptional regulator MvfR (Pseudomonas aeruginosa PA14) (UniProt A0A072ZLE6); assay: Inhibition of PqsR in Pseudomonas aeruginosa PA14 assessed as potentiation of tobramycin-mediated reduction in biofilm CFU at 10 uM incubated for 24 hrs relative to tobramycin alone
T1 sequence (whole entry): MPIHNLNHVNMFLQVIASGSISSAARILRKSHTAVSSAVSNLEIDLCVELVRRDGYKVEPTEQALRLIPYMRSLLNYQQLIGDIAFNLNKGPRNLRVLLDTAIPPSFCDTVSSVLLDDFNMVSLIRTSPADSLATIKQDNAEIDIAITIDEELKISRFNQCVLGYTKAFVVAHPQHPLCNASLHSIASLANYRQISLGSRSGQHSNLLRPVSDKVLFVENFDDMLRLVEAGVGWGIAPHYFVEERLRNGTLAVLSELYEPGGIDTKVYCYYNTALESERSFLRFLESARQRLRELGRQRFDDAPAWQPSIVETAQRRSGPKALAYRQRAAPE

[6] = target: T1, Transcriptional regulator MvfR (Pseudomonas aeruginosa PA14); assay: Inhibition of PqsR in Pseudomonas aeruginosa PA14 assessed as potentiation of meropenem-mediated reduction in biofilm CFU at 10 uM incubated for 24 hrs relative to meropenem alone

For `Cc1cccc2c3c(ccc12)C1=C(C(=O)C3=O)[C@@H](C)CO1` [DIHYDROTANSHINONE I], which survival at 100 µM (Pseudomonas aeruginosa [1]) is on record?
Its survival at 100 µM is 90%.

And the IC50 [2]?
Its IC50 is 0.68 µM.

With `O=c1c(O)c(-c2ccccc2)oc2cc(O)cc(O)c12` as the molecule, how does the IC85 (Pseudomonas aeruginosa [3]) read?
The IC85 was 100 µM.

With `CS(=O)(=O)c1nccc(-n2cnnn2)n1` as the molecule, how does the IC50 [4] read?
Its IC50 is 100 µM.

Which results are given for `O=C(CSc1nc2cc([N+](=O)[O-])ccc2[nH]1)Nc1ccc(Oc2ccccc2)cc1`?
fold change (FC) [5]: 17; fold change (FC) [6]: 178
